Data published in PMC8459971, “Evaluation of the hepatotoxicity of the novel GPR40 (FFAR1) agonist CPL207280 in the rat and monkey” (PLoS ONE, 2021).
Where “and” joins values, the source holds several entries; their conditions need not be identical. Equal values may be shown once. Read-outs that look alike come from different tables or passages of the source.

Experiments:
[1] = molecular target: T1, OAT1 (Homo sapiens, UniProt Q4U2R8); experiment: Uptake transporter inhibition assay, OAT1; conditions: OAT1; reference inhibitor 300 µM;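 note: HEK293FT cells expressing OAT1 or mock, uptake of radiolabeled probe substrate at 37 °C in HBSS pH 7.4 with test compound or solvent, cell lysate read by liquid scintillation counting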
T1 sequence (Q4U2R8 1-563): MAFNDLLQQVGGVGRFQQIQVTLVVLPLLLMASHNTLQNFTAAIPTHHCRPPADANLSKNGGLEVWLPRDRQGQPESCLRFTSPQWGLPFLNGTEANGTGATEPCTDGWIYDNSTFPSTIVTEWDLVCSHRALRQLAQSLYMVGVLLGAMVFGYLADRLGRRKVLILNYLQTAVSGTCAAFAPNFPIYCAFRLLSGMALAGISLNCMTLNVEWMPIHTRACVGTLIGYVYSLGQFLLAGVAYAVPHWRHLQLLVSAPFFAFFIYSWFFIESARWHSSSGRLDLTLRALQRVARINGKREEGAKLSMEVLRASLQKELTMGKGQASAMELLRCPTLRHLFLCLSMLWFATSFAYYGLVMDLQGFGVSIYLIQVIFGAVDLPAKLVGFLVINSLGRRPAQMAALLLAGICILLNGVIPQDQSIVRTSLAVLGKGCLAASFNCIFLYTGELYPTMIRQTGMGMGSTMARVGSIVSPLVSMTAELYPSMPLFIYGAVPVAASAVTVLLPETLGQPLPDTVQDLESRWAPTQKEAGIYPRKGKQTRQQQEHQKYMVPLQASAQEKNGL
Protocol: (§2) For the uptake transporter inhibition assay, cells were washed twice with 100 μL of the appropriate buffer (HK, pH 7.4) for OATP1B1, followed by HBSS (pH 7.4) for (NTCP, OAT1, OAT2v1, OATP1A2, and OATP1B3). Uptake experiments were carried out at 37 ± 1°C in 50 μL of the respective buffer containing the probe substrate and the compound or solvent. […] After the experiment, cells were washed twice with 100 μL of cold appropriate buffer and lysed with 50 μL of 0.1 M NaOH. Radiolabeled probe substrate transport was determined by measuring an aliquot (35 μL) from each well for liquid scintillation counting.

[2] = molecular target: MRP2 (Homo sapiens, UniProt Q92887); experiment: Vesicular transport inhibition assay, MRP2; conditions: MRP2; reference inhibitor 200 µM;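 note: membrane vesicles with probe substrate plus 2 mM glutathione, incubated with 4 mM ATP or AMP (AMP as background control), vesicle-retained substrate measured by liquid scintillation counting; ATP 4 mM vs AMP background separates transporter uptake from diffusion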
Protocol: In the vesicular transport inhibition assay (for BSEP, MRP) compounds were incubated with membrane vesicle preparations and the probe substrate. Incubations were carried out in the presence of 4 mM ATP or AMP to distinguish between transporter-mediated uptake and passive diffusion into the vesicles. For MRP2 and MRP3, reactions were carried out in the presence of 2 mM glutathione. Compounds were added to the reaction mixture in 0.75 μL of solvent (1% of the final incubation volume). […] Reactions were initiated by the addition of 25 μL of 12 mM MgATP (or 12 mM AMP in assay buffer as a background control) and preincubated separately. Reactions were quenched by the addition of 200 μL of ice-cold washing buffer and immediate filtration via glass fiber filters mounted on a 96-well plate (filter plate). The filters were washed (5 × 200 μL of ice-cold washing buffer), dried, and the amount of substrate inside the filtered vesicles was determined by liquid scintillation counting.

[3] = molecular target: T2, OAT2v1 (Homo sapiens, UniProt Q9Y694); experiment: Uptake transporter inhibition assay, OAT2v1; assay type: cell-based; conditions: OAT2v1; reference inhibitor 300 µM
T2 construct: expressed in transfected cells; host or cells: HEK cells
T2 sequence (Q9Y694 1-546 isoform Q9Y694-2): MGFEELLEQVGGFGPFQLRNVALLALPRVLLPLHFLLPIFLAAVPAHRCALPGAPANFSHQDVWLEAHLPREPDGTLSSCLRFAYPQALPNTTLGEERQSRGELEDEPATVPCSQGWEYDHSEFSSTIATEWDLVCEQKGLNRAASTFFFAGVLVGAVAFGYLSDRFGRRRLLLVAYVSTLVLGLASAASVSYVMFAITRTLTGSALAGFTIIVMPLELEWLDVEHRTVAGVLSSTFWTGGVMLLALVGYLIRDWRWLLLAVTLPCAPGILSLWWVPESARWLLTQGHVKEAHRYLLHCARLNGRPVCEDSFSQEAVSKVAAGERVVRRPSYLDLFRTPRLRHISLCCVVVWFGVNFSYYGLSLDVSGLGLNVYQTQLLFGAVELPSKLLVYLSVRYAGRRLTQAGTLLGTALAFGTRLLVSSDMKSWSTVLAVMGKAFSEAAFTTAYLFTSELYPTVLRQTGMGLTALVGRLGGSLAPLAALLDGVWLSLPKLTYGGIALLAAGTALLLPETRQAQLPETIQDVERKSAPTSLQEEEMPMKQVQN
Protocol: (§1) For the uptake transporter inhibition assay, cells were washed twice with 100 μL of the appropriate buffer (HK, pH 7.4) for OATP1B1, followed by HBSS (pH 7.4) for (NTCP, OAT1, OAT2v1, OATP1A2, and OATP1B3). Uptake experiments were carried out at 37 ± 1°C in 50 μL of the respective buffer containing the probe substrate and the compound or solvent.

[4] = molecular target: OATP1A2 (Homo sapiens, UniProt P46721); experiment: Uptake transporter inhibition assay, OATP1A2; conditions: OATP1A2; reference inhibitor 500 µM;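 note: cellular uptake of a radiolabeled probe substrate in HBSS pH 7.4 at 37 °C with test compound or solvent, measured by liquid scintillation counting of cell lysates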
Protocol: as §2

[5] = molecular target: T3, NTCP (Homo sapiens, UniProt Q14973); experiment: Uptake transporter inhibition assay, NTCP; assay type: cell-based; conditions: NTCP; reference inhibitor 300 µM
T3 construct: expressed in transfected cells; host or cells: HEK cells
T3 sequence (Q14973 1-349): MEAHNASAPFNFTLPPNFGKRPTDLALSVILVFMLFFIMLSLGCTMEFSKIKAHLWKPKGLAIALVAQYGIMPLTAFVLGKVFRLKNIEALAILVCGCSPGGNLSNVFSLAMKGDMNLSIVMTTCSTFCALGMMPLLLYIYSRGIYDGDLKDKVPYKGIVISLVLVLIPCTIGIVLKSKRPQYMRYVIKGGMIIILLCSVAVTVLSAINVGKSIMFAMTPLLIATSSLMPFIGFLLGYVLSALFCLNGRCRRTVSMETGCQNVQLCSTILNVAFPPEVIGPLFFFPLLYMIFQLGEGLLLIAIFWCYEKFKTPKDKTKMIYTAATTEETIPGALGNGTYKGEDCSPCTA
Protocol: as §1

[6] = system: HepaRG spheroids; experiment: HepaRG 3D spheroids, cell and mitochondrial health markers, 14 days; conditions: TIMEPOINT 336
Protocol: Hepatic spheroids were formed by seeding HepaRG™ cells into round-bottom ultra-low adhesion 96-well spheroid plates (Corning®) in 3D liver media with 0.5% DMSO, 100 U/mL penicillin, and 100 mg/L streptomycin. Cells were incubated at 37°C and 5% CO2 until spheroid formation and then compound-treated. The test compound was diluted in the vehicle, and serial dilutions were made in a 0.5% vehicle in HepaRG™ induction media. […] L-buthionine sulfoximine was used as positive control for GSH content, whereas rotenone was simultaneously used as a positive control for mitochondrial dysfunction and ATP content. At the end of the incubation period, the cells were loaded with the relevant dye for each cell health marker: DNA structure–Hoescht, GSH content–mBCL, ROS formation–DHE, mitochondrial dysfunction–MitoTracker, and cellular ATP content–CellTiter-Glo®, Promega. The plate was then scanned using an automated confocal fluorescent cellular imager, ArrayScan® XTI (Thermo Scientific Cellomics) at 37°C and 5% CO2. Further, the cellular ATP content was measured using CellTiter-Glo® (Promega, USA).

[7] = HepaRG spheroid, at the concentration (uM) given
[8] = HepaRG spheroid, plotted value at the concentration given

MRP2, sequence (Q92887 whole entry, the tested form may be a part): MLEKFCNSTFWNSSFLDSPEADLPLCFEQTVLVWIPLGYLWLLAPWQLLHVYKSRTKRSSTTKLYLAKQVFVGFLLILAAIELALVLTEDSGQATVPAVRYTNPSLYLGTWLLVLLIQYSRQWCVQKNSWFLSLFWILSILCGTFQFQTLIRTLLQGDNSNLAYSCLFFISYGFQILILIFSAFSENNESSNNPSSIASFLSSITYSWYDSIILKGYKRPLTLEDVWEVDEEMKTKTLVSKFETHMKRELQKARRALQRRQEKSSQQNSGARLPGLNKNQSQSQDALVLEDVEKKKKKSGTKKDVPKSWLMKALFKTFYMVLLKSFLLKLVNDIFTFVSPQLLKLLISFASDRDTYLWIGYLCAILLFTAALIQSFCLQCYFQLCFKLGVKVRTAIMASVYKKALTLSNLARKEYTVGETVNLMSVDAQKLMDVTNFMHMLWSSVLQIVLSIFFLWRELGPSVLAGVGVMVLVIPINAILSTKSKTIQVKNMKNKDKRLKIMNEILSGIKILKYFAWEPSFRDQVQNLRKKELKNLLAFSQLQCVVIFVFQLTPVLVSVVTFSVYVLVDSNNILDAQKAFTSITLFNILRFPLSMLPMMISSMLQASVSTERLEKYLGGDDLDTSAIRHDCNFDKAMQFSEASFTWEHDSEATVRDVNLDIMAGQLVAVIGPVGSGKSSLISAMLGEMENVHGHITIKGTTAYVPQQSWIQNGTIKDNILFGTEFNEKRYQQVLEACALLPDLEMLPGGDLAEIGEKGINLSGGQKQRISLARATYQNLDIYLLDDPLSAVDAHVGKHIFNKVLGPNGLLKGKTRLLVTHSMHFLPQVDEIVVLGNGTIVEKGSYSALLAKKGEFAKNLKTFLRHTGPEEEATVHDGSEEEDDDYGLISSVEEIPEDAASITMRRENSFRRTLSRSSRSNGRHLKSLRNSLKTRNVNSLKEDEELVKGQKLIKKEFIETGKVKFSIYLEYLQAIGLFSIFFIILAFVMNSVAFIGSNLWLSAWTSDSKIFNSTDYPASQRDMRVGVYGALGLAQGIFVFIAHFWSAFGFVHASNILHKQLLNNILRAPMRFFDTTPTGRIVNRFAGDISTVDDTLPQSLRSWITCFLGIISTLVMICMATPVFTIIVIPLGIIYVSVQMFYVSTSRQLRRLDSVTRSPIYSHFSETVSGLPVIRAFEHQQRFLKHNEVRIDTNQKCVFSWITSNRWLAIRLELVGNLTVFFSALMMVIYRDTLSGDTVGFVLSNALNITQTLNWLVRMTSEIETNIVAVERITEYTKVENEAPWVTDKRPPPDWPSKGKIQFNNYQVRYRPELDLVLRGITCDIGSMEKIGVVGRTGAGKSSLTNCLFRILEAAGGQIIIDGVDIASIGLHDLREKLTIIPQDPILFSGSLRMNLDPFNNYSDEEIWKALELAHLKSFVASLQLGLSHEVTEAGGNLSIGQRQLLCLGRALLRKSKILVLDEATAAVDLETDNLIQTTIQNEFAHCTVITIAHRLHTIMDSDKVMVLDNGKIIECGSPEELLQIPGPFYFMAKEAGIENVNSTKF
OATP1A2, sequence (P46721 whole entry): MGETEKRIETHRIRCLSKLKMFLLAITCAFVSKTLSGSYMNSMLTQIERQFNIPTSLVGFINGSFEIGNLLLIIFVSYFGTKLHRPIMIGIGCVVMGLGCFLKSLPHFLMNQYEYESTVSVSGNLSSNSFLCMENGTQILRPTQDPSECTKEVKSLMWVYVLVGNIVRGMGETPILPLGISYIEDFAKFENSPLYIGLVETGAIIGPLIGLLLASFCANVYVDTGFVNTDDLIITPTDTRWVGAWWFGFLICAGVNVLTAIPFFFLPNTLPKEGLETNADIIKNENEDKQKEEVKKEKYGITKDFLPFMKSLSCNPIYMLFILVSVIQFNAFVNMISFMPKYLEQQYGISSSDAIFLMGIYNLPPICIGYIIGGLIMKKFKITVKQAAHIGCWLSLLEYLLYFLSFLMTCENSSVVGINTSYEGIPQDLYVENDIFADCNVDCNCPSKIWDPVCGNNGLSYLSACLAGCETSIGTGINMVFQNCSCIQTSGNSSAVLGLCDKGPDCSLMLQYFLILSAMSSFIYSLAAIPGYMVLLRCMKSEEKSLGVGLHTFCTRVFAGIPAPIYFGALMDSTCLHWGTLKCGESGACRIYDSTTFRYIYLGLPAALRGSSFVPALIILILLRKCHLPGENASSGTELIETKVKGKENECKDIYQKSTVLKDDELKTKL

**Q.** With `CCc1oc2ccccc2c1C(=O)c1cc(Br)c(O)c(Br)c1` [Benzbromarone] as the molecule, how does the “Accumulation (counts per minute; CPM) HEK293FT-MOCK” value [1] read?
**A.** The value was 48 CPM and 31 CPM and 32 CPM and 38 CPM.

**Q.** And the “Accumulation (counts per minute; CPM) HEK293FT-OAT1” value [1]?
**A.** The value was 76 CPM and 82 CPM and 74 CPM and 83 CPM.

**Q.** What about the “Accumulation (counts per minute; CPM) with AMP” value [2] of the same molecule?
**A.** Its value is 198 CPM and 209 CPM.

**Q.** What about the “Accumulation (counts per minute; CPM) with ATP” value [2] of the same molecule?
**A.** The value was 183 CPM and 176 CPM.

**Q.** Which “Accumulation (counts per minute; CPM) HEK293FT-OAT2v1” value [3] does the source give for `COc1ccc2c(c1)c(CC(=O)O)c(C)n2C(=O)c1ccc(Cl)cc1` [Indomethacin] here?
**A.** The value was 503 CPM and 467 CPM and 353 CPM and 367 CPM.

**Q.** What does the source list for `O=C1OC(c2ccc(O)c(S(=O)(=O)O)c2)(c2ccc(O)c(S(=O)(=O)O)c2)c2c(Br)c(Br)c(Br)c(Br)c21` [Sulfobromophthalein]?
**A.** Accumulation (counts per minute; CPM) HEK293FT-MOCK [4]: 79 CPM and 76 CPM and 86 CPM; Accumulation (counts per minute; CPM) HEK293FT-OATP1A2 [4]: 880 CPM and 817 CPM and 881 CPM and 862 CPM

**Q.** With `C[C@H](CCC(=O)NCCS(=O)(=O)O)[C@H]1CC[C@H]2[C@@H]3[C@H](O)C[C@@H]4C[C@H](O)CC[C@]4(C)[C@H]3CC[C@]12C` [TCDC] as the molecule, how does the “Accumulation (counts per minute; CPM) HEK293-NTCP” value [5] read?
**A.** The value was 257 CPM and 289 CPM and 184 CPM and 282 CPM.

**Q.** And the “Accumulation (counts per minute; CPM) HEK293FT-MOCK” value [5]?
**A.** The value was 24 CPM and 25 CPM and 21 CPM and 27 CPM.

**Q.** What does the source list for `N#CC(C#N)=NNc1cccc(Cl)c1` [carbonyl cyanide 3-chlorophenylhydrazone]?
**A.** Cellular ATP Mean Plotted Value ([6]; CONC 0.04 uM): 1.06; DNA structure Mean Plotted Value ([6]; CONC 0.04 uM): 0.942; Glutathione content Mean Plotted Value ([6]; CONC 0.04 uM): 0.925; Mitochondrial mass Mean Plotted Value ([6]; CONC 0.04 uM): 1.13; Mitochondrial membrane potential Mean Plotted Value ([6]; CONC 0.04 uM): 1.05; Oxidative stress Mean Plotted Value ([6]; CONC 0.04 uM): 1.02; Spheroid count Mean Plotted Value ([6]; CONC 0.04 uM): 1; Spheroid size Mean Plotted Value ([6]; CONC 0.04 uM): 1.01; Cellular ATP Mean Plotted Value ([6]; CONC 0.1 uM): 1.01; DNA structure Mean Plotted Value ([6]; CONC 0.1 uM): 1.05; Glutathione content Mean Plotted Value ([6]; CONC 0.1 uM): 0.914; Mitochondrial mass Mean Plotted Value ([6]; CONC 0.1 uM): 1.06; Mitochondrial membrane potential Mean Plotted Value ([6]; CONC 0.1 uM): 1.15; Oxidative stress Mean Plotted Value ([6]; CONC 0.1 uM): 1; Spheroid count Mean Plotted Value ([6]; CONC 0.1 uM): 1; Spheroid size Mean Plotted Value ([6]; CONC 0.1 uM): 1.04; Cellular ATP Mean Plotted Value ([6]; CONC 0.4 uM): 0.966; DNA structure Mean Plotted Value ([6]; CONC 0.4 uM): 1.07; Glutathione content Mean Plotted Value ([6]; CONC 0.4 uM): 0.993; Mitochondrial mass Mean Plotted Value ([6]; CONC 0.4 uM): 0.994; Mitochondrial membrane potential Mean Plotted Value ([6]; CONC 0.4 uM): 1.07; Oxidative stress Mean Plotted Value ([6]; CONC 0.4 uM): 0.993; Spheroid count Mean Plotted Value ([6]; CONC 0.4 uM): 1; Spheroid size Mean Plotted Value ([6]; CONC 0.4 uM): 0.969; Cellular ATP Mean Plotted Value ([6]; CONC 1 uM): 0.843; DNA structure Mean Plotted Value ([6]; CONC 1 uM): 0.905; Glutathione content Mean Plotted Value ([6]; CONC 1 uM): 0.819; Mitochondrial mass Mean Plotted Value ([6]; CONC 1 uM): 1.11; Mitochondrial membrane potential Mean Plotted Value ([6]; CONC 1 uM): 0.995; Oxidative stress Mean Plotted Value ([6]; CONC 1 uM): 1.12; Spheroid count Mean Plotted Value ([6]; CONC 1 uM): 1; Spheroid size Mean Plotted Value ([6]; CONC 1 uM): 0.994; Cellular ATP Mean Plotted Value ([6]; CONC 4 uM): 0.0197; DNA structure Mean Plotted Value ([6]; CONC 4 uM): 0.726; Glutathione content Mean Plotted Value ([6]; CONC 4 uM): 0.176; Mitochondrial mass Mean Plotted Value ([6]; CONC 4 uM): 0.851; Mitochondrial membrane potential Mean Plotted Value ([6]; CONC 4 uM): 0.876; Oxidative stress Mean Plotted Value ([6]; CONC 4 uM): 1.36; Spheroid count Mean Plotted Value ([6]; CONC 4 uM): 1; Spheroid size Mean Plotted Value ([6]; CONC 4 uM): 0.828; Cellular ATP Mean Plotted Value ([6]; CONC 10 uM): -0.000228; DNA structure Mean Plotted Value ([6]; CONC 10 uM): 0.0956; Glutathione content Mean Plotted Value ([6]; CONC 10 uM): 0.111; Mitochondrial mass Mean Plotted Value ([6]; CONC 10 uM): 0.763; Mitochondrial membrane potential Mean Plotted Value ([6]; CONC 10 uM): 0.627; Oxidative stress Mean Plotted Value ([6]; CONC 10 uM): 1.36; Spheroid count Mean Plotted Value ([6]; CONC 10 uM): 1; Spheroid size Mean Plotted Value ([6]; CONC 10 uM): 0.751; Cellular ATP Mean Plotted Value ([6]; CONC 40 uM): -0.000179; DNA structure Mean Plotted Value ([6]; CONC 40 uM): 0.0736; Glutathione content Mean Plotted Value ([6]; CONC 40 uM): 0.0824; Mitochondrial mass Mean Plotted Value ([6]; CONC 40 uM): 0.515; Mitochondrial membrane potential Mean Plotted Value ([6]; CONC 40 uM): 0.236; Oxidative stress Mean Plotted Value ([6]; CONC 40 uM): 0.339; Spheroid count Mean Plotted Value ([6]; CONC 40 uM): 1; Spheroid size Mean Plotted Value ([6]; CONC 40 uM): 0.674; Cellular ATP Mean Plotted Value ([6]; CONC 100 uM): 8.57e-5; DNA structure Mean Plotted Value ([6]; CONC 100 uM): 0.0501; Glutathione content Mean Plotted Value ([6]; CONC 100 uM): 0.0467; Mitochondrial mass Mean Plotted Value ([6]; CONC 100 uM): 0.488; Mitochondrial membrane potential Mean Plotted Value ([6]; CONC 100 uM): 0.132; Oxidative stress Mean Plotted Value ([6]; CONC 100 uM): 0.234; Spheroid count Mean Plotted Value ([6]; CONC 100 uM): 1; Spheroid size Mean Plotted Value ([6]; CONC 100 uM): 0.58; Cellular ATP MEC ([6]; HepaRG spheroid): 0.829 µM; DNA structure MEC ([6]; HepaRG spheroid): 3.51 µM; Glutathione content MEC ([6]; HepaRG spheroid): 0.876 µM; Mitochondrial mass MEC ([6]; HepaRG spheroid): 6.35 µM; Mitochondrial membrane potential MEC ([6]; HepaRG spheroid): 5.82 µM; Oxidative stress MEC ([6]; HepaRG spheroid): 1.46 µM; Spheroid size MEC ([6]; HepaRG spheroid): 2.63 µM; Cellular ATP MR (% @ concentration) [6, 7]: 100%; DNA structure MR (% @ concentration) [6, 7]: 95%; Glutathione content MR (% @ concentration) [6, 7]: 91%; Mitochondrial mass MR (% @ concentration) [6, 7]: 52%; Mitochondrial membrane potential MR (% @ concentration) [6, 7]: 88%; Oxidative stress MR (% @ concentration) [6, 7]: 37%; Spheroid size MR (% @ concentration) [6, 7]: 35%; Cellular ATP MR [6, 8]: -0.000228; DNA structure MR [6, 8]: 0.0501; Glutathione content MR [6, 8]: 0.0824; Mitochondrial mass MR [6, 8]: 0.515; Mitochondrial membrane potential MR [6, 8]: 0.132; Oxidative stress MR [6, 8]: 1.36; Spheroid size MR [6, 8]: 0.674; AC50 ([6]; read-out: Cellular ATP AC50, HepaRG spheroid): 1.63 µM; AC50 ([6]; read-out: DNA structure AC50, HepaRG spheroid): 5.13 µM; AC50 ([6]; read-out: Glutathione content AC50, HepaRG spheroid): 2.19 µM; AC50 ([6]; read-out: Mitochondrial mass AC50, HepaRG spheroid): 35.7 µM; AC50 ([6]; read-out: Mitochondrial membrane potential AC50, HepaRG spheroid): 12.4 µM; AC50 ([6]; read-out: Oxidative stress AC50, HepaRG spheroid): 15.4 µM; AC50 ([6]; read-out: Spheroid count AC50, HepaRG spheroid): > 100 µM; AC50 ([6]; read-out: Spheroid size AC50, HepaRG spheroid): > 40 µM
